Assay results reported in patent publication US5726195A, “Aminoacyl adenylate mimics as novel antimicrobial and antiparasitic agents” (Cubist Pharmaceuticals, Inc., priority 1996, dated 1998).
≈ marks a conversion by molar mass, not a printed value.

Tests used:
E. faecium ATCC 6569 = assay: Whole cell antimicrobial screen, MIC; format: cell-based; conditions: Enterococcus faecium, ATCC6569
Protocol: (§1) Compounds were tested for antimicrobial activity against a panel of organisms according to standard procedures described by the National Committee for Clinical Laboratory Standards (NCCLS document M7-A3, Vol. 13, No. 25, 1993/NCCLS document M27-P, Vol. 12, No. 25, 1992). Compounds were dissolved in 100% dimethyl sulfoxide and were diluted to the final reaction concentration (0.1 μg/mL-500 μg/mL) in microbial growth media. In al cases the final concentration of dimethyl sulfoxide incubated with cells is less than or equal to 1%. For minimum inhibitory concentration (MIC) calculations, 2-fold dilutions of compounds were added to wells of a microtiter plate containing 5×10^4 bacteria or fungal cells in a final volume of 100 lambda of an appropriate media (Mueller-Hinton Broth; Haemophilus Test Media; Mueller-Hinton Broth+5% Sheep Blood; or […]). Plates were incubated overnight at an appropriate temperature (30° C.-37° C.) and optical densities (measure of cell growth) were measured using a commercial plate reader. The MIC value is defined as the lowest compound concentration inhibiting growth of the test organism.

C. albicans ATCC 10231 = assay: Whole cell antimicrobial screen, MIC; format: cell-based; conditions: Candida albicans, ATCC10231
Protocol: as §1

[1] = tested on: S. epidermidis ATCC 33501; assay: Whole cell antimicrobial screen, MIC; format: cell-based; conditions: Staphylococcus epidermidis, ATCC33501
Protocol: as §1

[2] = tested on: S. saprophyticus ATCC 35552; assay: Whole cell antimicrobial screen, MIC; format: cell-based; conditions: Staphylococcus saprophyticus, ATCC35552
Protocol: as §1

E. faecalis ATCC 33011 = assay: Whole cell antimicrobial screen, MIC; format: cell-based; conditions: Enterococcus faecalis, ATCC33011
Protocol: as §1

S. aureus ATCC 6538P = assay: Whole cell antimicrobial screen, MIC; format: cell-based; conditions: Staphylococcus aureus, ATCC6538P
Protocol: as §1

S. aureus ATCC 14154 = assay: Whole cell antimicrobial screen, MIC; format: cell-based; conditions: Staphylococcus aureus, ATCC14154
Protocol: as §1

[3] = molecular target: E. Coli. IleRS (isoleucyl-tRNA synthetase) (Escherichia coli, UniProt P00956); assay: Inhibition of isoleucyl-tRNA synthetase (aminoacylation of tRNA with [3H]isoleucine); format: biochemical; conditions: E. coli enzyme; irreversible inhibitors: values are 50% of the active enzyme concentration; read-out: IC50 E.Coli. IleRS
Protocol: The extent of aminoacylation of tRNA with isoleucine catalyzed by isoleucyl-tRNA synthetase enzyme was measured by monitoring the incorporation of [3H] isoleucine into trichloroacetic acid-precipitable tRNA in the presence of a compound of Formula I, as compared with activity in the absence of inhibitor. The isoleucyl-tRNA synthetase enzymes are well known in the prior art and can be obtained and purified by known methods (for example see: D. Kern et at., Biochimie, 61, 1257-1272 (1979) and J. Gilbart et al., Antimicrobial Agents and Chemotherapy, 37 (1), 32-38 (1993)).
Isoleucyl-tRNA synthetase enzyme (0.08-2.0 nM, preferably, 0.4 nM) was first pre-incubated at 25° C. with 0.05 mg/ml bovine serum albumin, 10 mM DTT, 2.5% dimethyl sulfoxide, with or without a compound of Formula I, for 20 minutes. At this point a substrate solution (a solution containing the following: ATP, [^3 H]isoleucine, tRNA, HEPES, magnesium chloride, and potassium chloride) was added to give a final concentration of 0.0286 mg/ml bovine serum albumin, 5.7 mM DTT, 4 mM ATP, 5-20 μM [^3 H] isoleucine (1-15 Ci/mmol), 90 μM crude tRNA or 2 μM isoleucine specific tRNA, 1.4% dimethyl sulfoxide, 30 mM HEPES (pH 7.5), 10 mM magnesium chloride, and 50 mM potassium chloride and incubated at 25° C. Aliquots were removed at selected times (e.g. 5, 10, 20 minutes) and applied to 3MM filter paper discs (Whatman) and then dropped into 5% (wt/vol) trichloroacetic acid for >5 minutes. Filters were washed for three 10-minute periods in 5% trichloroacetic acid, rinsed in 95% ethanol and diethyl ether, and radioactivity was measured with Betafluor™ (National Diagnostics) by liquid scintillation counting.
Inhibitor activity is reported in Table II as an IC50 value (inhibitor concentration causing 50% inhibition of enzyme activity) per a known amount of active enzyme. In the case of irreversible inhibitors (1:1 stoichiometry) these values are 50% of the active enzyme concentration. The IC50 (in nM, E. coli) values of representative compounds of the present invention are listed in the second column of Table II.

B. subtilis ATCC 6633 = assay: Whole cell antimicrobial screen, MIC; format: cell-based; conditions: Bacillus subtilis, ATCC6633
Protocol: as §1

K. pneumonia ATCC 4352 = assay: Whole cell antimicrobial screen, MIC; format: cell-based; conditions: Klebsiella pneumoniae, ATCC4352
Protocol: as §1

Chain of E. Coli. IleRS (isoleucyl-tRNA synthetase) (P00956 whole entry): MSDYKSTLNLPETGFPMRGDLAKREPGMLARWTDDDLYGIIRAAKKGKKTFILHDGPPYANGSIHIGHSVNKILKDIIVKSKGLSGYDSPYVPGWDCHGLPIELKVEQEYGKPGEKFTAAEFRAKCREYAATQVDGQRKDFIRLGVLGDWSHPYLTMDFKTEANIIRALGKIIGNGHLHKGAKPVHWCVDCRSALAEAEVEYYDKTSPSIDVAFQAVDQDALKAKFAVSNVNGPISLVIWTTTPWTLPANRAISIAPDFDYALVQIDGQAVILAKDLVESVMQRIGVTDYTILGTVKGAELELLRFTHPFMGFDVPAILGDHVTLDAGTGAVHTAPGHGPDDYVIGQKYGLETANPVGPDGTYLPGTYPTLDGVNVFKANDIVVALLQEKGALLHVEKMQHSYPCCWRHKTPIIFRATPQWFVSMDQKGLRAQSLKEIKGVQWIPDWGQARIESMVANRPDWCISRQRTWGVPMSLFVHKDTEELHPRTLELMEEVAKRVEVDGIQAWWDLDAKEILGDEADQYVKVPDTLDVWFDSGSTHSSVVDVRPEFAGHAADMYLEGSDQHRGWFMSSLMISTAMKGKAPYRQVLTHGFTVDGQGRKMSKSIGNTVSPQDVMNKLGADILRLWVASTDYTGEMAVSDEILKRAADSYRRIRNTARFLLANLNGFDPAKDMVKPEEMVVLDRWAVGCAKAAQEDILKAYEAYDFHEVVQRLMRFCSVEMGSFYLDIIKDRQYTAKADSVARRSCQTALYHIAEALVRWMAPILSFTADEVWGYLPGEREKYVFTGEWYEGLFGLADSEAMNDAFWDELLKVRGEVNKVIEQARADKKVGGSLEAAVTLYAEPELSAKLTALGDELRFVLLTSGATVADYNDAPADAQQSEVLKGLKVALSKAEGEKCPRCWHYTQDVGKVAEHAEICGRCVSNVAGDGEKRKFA

For `CC[C@H](C)[C@H](N)C(=O)NS(=O)(=O)OC[C@H]1O[C@@H](CCn2nnc(-c3ccc(Oc4ccccn4)cc3)n2)[C@H](O)[C@@H]1O` [XVI], the MIC (E. faecium ATCC 6569) was 50 µg/mL (≈ 84.5 µM), the MIC (C. albicans ATCC 10231) was 100 µg/mL (≈ 169 µM) and the MIC [1] was 25 µg/mL (≈ 42.3 µM). It also gave an MIC [2] of 50 µg/mL (≈ 84.5 µM), an MIC (E. faecalis ATCC 33011) of 500 µg/mL (≈ 845 µM) and an MIC (S. aureus ATCC 6538P) of 100 µg/mL (≈ 169 µM). For the same molecule, the MIC (S. aureus ATCC 14154) was 100 µg/mL (≈ 169 µM) and the IC50 [3] was 0.7 nM.

In the case of `CC[C@H](C)[C@H](N)C(=O)NS(=O)(=O)OC[C@H]1O[C@@H](Cn2nnc(Cc3ccc(Oc4ccccc4)cc3)n2)[C@H](O)[C@@H]1O` [XXVII, [S-(R*,R*)]-2,5-anhydro-1-deoxy-1-[5-(4-phenoxyphenylmethyl)-2H-tetrazol-2-yl]-D-allitol 6-(2-amino-3-methyl-1-oxopentyl)sulfamate], the MIC (E. faecium ATCC 6569) is reported as > 500 µg/mL, the MIC (C. albicans ATCC 10231) is reported as > 500 µg/mL and the MIC [1] is reported as > 500 µg/mL. The MIC [2] was > 500 µg/mL, the MIC (E. faecalis ATCC 33011) was > 500 µg/mL and the MIC (S. aureus ATCC 6538P) was > 500 µg/mL. The MIC (S. aureus ATCC 14154) was > 500 µg/mL and the IC50 [3] was 135 nM.

For `CC[C@H](C)[C@H](N)C(=O)NS(=O)(=O)OC[C@H]1O[C@@H](CCn2nnc(-c3ccc(Oc4ccc(Oc5ccccc5)cc4)cc3)n2)[C@H](O)[C@@H]1O` [XV], the MIC (E. faecium ATCC 6569) was 25 µg/mL (≈ 36.6 µM), the MIC (C. albicans ATCC 10231) was > 500 µg/mL and the MIC [1] was 5 µg/mL (≈ 7.32 µM). The MIC [2] was 10 µg/mL (≈ 14.6 µM), the MIC (E. faecalis ATCC 33011) was > 500 µg/mL and the MIC (S. aureus ATCC 6538P) was 10 µg/mL (≈ 14.6 µM). It also gave an MIC (S. aureus ATCC 14154) of 10 µg/mL (≈ 14.6 µM) and an IC50 [3] of 1.8 nM.

For `CC[C@H](C)[C@H](N)C(=O)NS(=O)(=O)OC[C@H]1O[C@@H](CCn2nnc(-c3ccc(C=C(Br)Br)cc3)n2)[C@H](O)[C@@H]1O` [V], the MIC (E. faecium ATCC 6569) was 100 µg/mL (≈ 147 µM), the MIC (C. albicans ATCC 10231) was 500 µg/mL (≈ 733 µM) and the MIC [1] was 25 µg/mL (≈ 36.6 µM). For the same molecule, the MIC [2] was 25 µg/mL (≈ 36.6 µM), the MIC (E. faecalis ATCC 33011) was 500 µg/mL (≈ 733 µM) and the MIC (S. aureus ATCC 6538P) was 50 µg/mL (≈ 73.3 µM). For the same molecule, the MIC (S. aureus ATCC 14154) was 100 µg/mL (≈ 147 µM) and the IC50 [3] was 11 nM.

`CC[C@H](C)[C@H](N)C(=O)NS(=O)(=O)OC[C@H]1O[C@@H](CCn2nnc(-c3ccc(C#Cc4ccc([N+](=O)[O-])s4)cc3)n2)[C@H](O)[C@@H]1O` [I, [S-(R*,R*)]-3,6-anhydro-1,2-dideoxy-1-[5-[4-[(5-nitro-2-thienyl)ethynyl]phenyl]-2H-tetrazol-2-yl]-D-allo-heptitol 7-(2-amino-3-methyl-1-oxopentyl)sulfamate] was tested, and the MIC (E. faecium ATCC 6569) was > 500 µg/mL, the MIC (C. albicans ATCC 10231) was > 500 µg/mL and the MIC [1] was 1 µg/mL (≈ 1.54 µM). For the same molecule, the MIC [2] was 2 µg/mL (≈ 3.08 µM), the MIC (E. faecalis ATCC 33011) was > 500 µg/mL and the MIC (S. aureus ATCC 6538P) was 1 µg/mL (≈ 1.54 µM). The MIC (S. aureus ATCC 14154) was 5 µg/mL (≈ 7.7 µM) and the IC50 [3] was 1.3 nM.

`CC[C@H](C)[C@H](N)C(=O)NS(=O)(=O)OC[C@H]1O[C@@H](CCn2nnc(-c3ccc(-c4ccccn4)nc3)n2)[C@H](O)[C@@H]1O` [XXV] was tested, and the MIC (B. subtilis ATCC 6633) was > 500 µg/mL, the MIC (E. faecium ATCC 6569) was > 500 µg/mL and the MIC [1] was 25 µg/mL (≈ 43.4 µM). The MIC [2] was 50 µg/mL (≈ 86.7 µM), the MIC (E. faecalis ATCC 33011) was > 500 µg/mL and the MIC (S. aureus ATCC 6538P) was 500 µg/mL (≈ 867 µM). For the same molecule, the MIC (S. aureus ATCC 14154) was 100 µg/mL (≈ 173 µM), the MIC (K. pneumonia ATCC 4352) was > 500 µg/mL and the IC50 [3] was 0.5 nM.

In the case of `CC[C@H](C)[C@H](N)C(=O)NS(=O)(=O)OC[C@H]1O[C@@H](CCn2nnc(-c3ccc([N+](=O)[O-])o3)n2)[C@H](O)[C@@H]1O` [XXVIII], the MIC (E. faecium ATCC 6569) is reported as > 128 µg/mL, the MIC (C. albicans ATCC 10231) is reported as 500 µg/mL (≈ 937 µM) and the MIC [1] is reported as 32 µg/mL (≈ 60 µM). For the same molecule, the MIC [2] was > 128 µg/mL, the MIC (E. faecalis ATCC 33011) was > 128 µg/mL and the MIC (S. aureus ATCC 6538P) was 128 µg/mL (≈ 240 µM). It also gave an MIC (S. aureus ATCC 14154) of 128 µg/mL (≈ 240 µM) and an IC50 [3] of 8.8 nM.

`CC[C@H](C)[C@H](N)C(=O)NS(=O)(=O)OC[C@H]1O[C@@H](CCn2nnc(-c3ccc(Oc4cccc(C(F)(F)F)c4)cc3)n2)[C@H](O)[C@@H]1O` [XIV] was tested, and the MIC (E. faecium ATCC 6569) was 10 µg/mL (≈ 15.2 µM), the MIC (C. albicans ATCC 10231) was > 500 µg/mL and the MIC [1] was 5 µg/mL (≈ 7.59 µM). It also gave an MIC [2] of 10 µg/mL (≈ 15.2 µM), an MIC (E. faecalis ATCC 33011) of 100 µg/mL (≈ 152 µM) and an MIC (S. aureus ATCC 6538P) of 10 µg/mL (≈ 15.2 µM). The MIC (S. aureus ATCC 14154) was 25 µg/mL (≈ 38 µM) and the IC50 [3] was 1.7 nM.
